Experimental data taken from PMC5809414, “Physician-initiated clinical study of limb ulcers treated with a functional peptide, SR-0379: from discovery to a randomized, double-blind, placebo-controlled trial” (NPJ Aging and Mechanisms of Disease, 2018).
“And” between values parts separate entries of the source, which are not always exact repeats. Identical values can stand only once. Like-named read-outs stand apart in the source and are kept apart here. Where a SMILES comes first, the peptide text is derived from it. [ ]: non-standard residue; d: D form.

Key:
[1] = test system: healthy men; set-up: species or system human; conditions: in vivo
Protocol: A closed patch test was performed with SR-0379 at Shinanozaka Clinic (Shinjuku, Tokyo, Japan); the study protocol was approved by the Shinanozaka Clinic institutional review board. The registry number is UMIN000015391, and the URL is https://upload.umin.ac.jp/cgi-open-bin/ctr_e/ctr_view.cgi?recptno=R000017479. Sixty-six men were screened after obtaining informed consent, and a total of 20 healthy men were enrolled for the patch test after obtaining informed consent between October and November 2014. The inclusion criteria for healthy men were: (1) adult age (≧20 years and ≦40 years); (2) body mass index (≧18.5 and <25.0 kg/m^2); and (3) systolic blood pressure (SBP, ≦140 mmHg) and diastolic blood pressure (DBP, ≦90 mmHg); additionally, patients were to be within normal limits in an ECG test. The exclusion criteria were drug allergy or a history thereof, atopic dermatitis or allergic contact dermatitis, skin with dermatitis or inflammation, organ failure (heart, liver, kidney, blood), and others. The closed patch test was performed with a Finn chamber (7 mm) using filter paper containing 0.015 mL of SR-0379 solution (0%, 0.02%, 0.1%, 0.25%, or 0.5%). The allocation was generated by a coordinator and masked for the evaluator. […] Results were evaluated at 1 and 24 h after removal and graded according to the International Contact Dermatitis Research Group criteria (grades 1–6). […]

[2] = test system: infected wound; conditions: rat infected wound model, compared with FGF2; cited from earlier work
[3] = Safety evaluation (adverse events) in the clinical study; format: in vivo, human
Protocol: (§1) The primary outcome was the rate of wound size reduction at 4 weeks after the first treatment compared with pre-treatment wound size. Additionally, the following secondary endpoints were measured at 4 weeks after the first treatment and compared with pre-treatment status: time to wound closure; 50% wound size reduction ratio; quantification of Pseudomonas aeruginosa, Staphylococcus aureus, MRSA, and Streptococcus pyogenes; and overall evaluated ulcer improvement. Ulcer size was quantified based on skin ulcer pictures according to a defined procedure using ImageJ software and calculated as the percent change. We also used the DESIGN-R score index, which is calculated based on six components (exudate, size, infection/inflammation, granulation tissue, necrotic tissue, and pocket size), as a tool to score pressure ulcer severity.[23] Depth was excluded from the calculation. The total score was calculated by weighting the score of each item; a high score indicates greater severity. The safety of SR-0379 was evaluated during the treatment period (28 days) every 7 days and post-treatment (7 days) according to the Common Terminology Criteria for Adverse Events (version 4.0).

[4] = test system: endothelial cell and fibroblast; conditions: in vitro; cited from earlier work
Description: SR-0379 also promoted angiogenesis, granulation tissue formation, and endothelial cell and fibroblast proliferation in vitro. In this study, we conducted a multi-center, double-blinded, randomized phase I/IIa clinical study to evaluate the safety, efficacy, and pharmacokinetics of SR-0379 for the treatment of leg ulcers.

[5] = test system: Pseudomonas aeruginosa, Staphylococcus aureus, MRSA, and Streptococcus pyogenes; assay: Bacterial wound cultures (change pre to post); format: in vivo, human; conditions: n = 3
Protocol: as §1

[6] = test system: leg ulcers; assay: Phase I/IIa randomized, double-blind, placebo-controlled study: wound size, closure, DESIGN-R, overall improvement; format: in vivo, human; conditions: for skin ulcer rate of reduction at the final evaluation (4th week or discontinuation): vs pre-treatment wound size, mean ± SD; for skin ulcer rate of reduction at the final evaluation (4th week or discontinuation) / Overall improvement, Mild: number of patients / Overall improvement, Moderate: number of patients / Overall improvement, No change: number of patients / Overall improvement, Worse: number of patients / Skin ulcer size, 2 weeks after treatment (mean ± SD) / Skin ulcer size, Post-treatment (mean ± SD) / Wound closure, Yes: number of patients (%) / DESIGN-R total score, Post-mean (SD) / Overall improvement, Significant: number of patients: n = 3; for DESIGN-R total score, Pre-mean (SD): n = 3, baseline; for DESIGN-R total score, Pre-mean (SD) / DESIGN-R total score, Post-mean (SD): depth excluded, 0 (healed) to 66; for Overall improvement, Significant: number of patients: evaluation by investigators
Protocol: GMP-grade SR-0379 peptide was generated by the American Peptide Company (Torrance, CA, USA). The peptide was dissolved in a physiological salt solution, and spray-type containers were charged with 10 mL of SR-0379 solution under GMP conditions by Nagase Medical Co. Ltd. (Itami, Hyogo, Japan). A total of 0.05 mL of SR-0379 solution was administered per spray using this container. According to the protocol, each patient received 0.25 mL of SR-0379 solution over five sprays once per day for 28 days.
The clinical trial was conducted as an investigator-initiated, phase I/IIa, randomized, double-blind, placebo-controlled trial at five hospitals (Osaka University Hospital, Osaka; Chiba University Hospital, Chiba; Asano-Kanamachi Clinic, Tokyo; Medical Plaza Shinozakieki Nishiguchi, Tokyo; and Kasukabe Chuo General Hospital, Saitama) in Japan. Twelve patients were randomized into four groups and treated with 0.02%, 0.1%, or 0.5% SR-0379 or placebo treatment. The inclusion criteria for this clinical trial were: (1) adult (age≧20 years), (2) a diagnosis of diabetic ulcer or limb ulcer (artery or venous ulcer); and (3) wound size <6 cm in diameter. Exclusion criteria is (1) infection to be cured with antibiotics, (2) deep ulcer with reaching bone tissue, (3) skin ulcer with malignant tumor, (4) severe edema around skin ulcer, (5) patients with malignant tumor, (6) patients with severe heart failure, (7) patients with severe liver, kidney, and blood dysfunction, (8) malnutrition (serum albumin ≦2 g/dL), (9) poor general condition due to severe systemic infection, (10) poor control of hyperglycemia (HbA1c ≧9.0%), (11) pregnant women, and men or women who disagreed to avoid pregnancy during clinical trial period, (12) patients who changed from an oral to an intravenous drug to regulate blood flow (i.e., prostaglandin E1, prostacyclin I2) from 2 weeks before SR-0379 or placebo treatment, (13) surgical procedure for skin ulcer from 2 weeks before SR-0379 or placebo treatment, (14) attendance to other clinical trial from 12 weeks before SR-0379 or placebo treatment, and (15) judgment as an inappropriate patient by principle investigator. The study protocol was approved by the institutional review board of each hospital. Patients gave written informed consent before enrollment.
Twelve patients were randomized into four groups and treated with 0.02%, 0.1,% or 0.5% SR-0379 or placebo treatment. The allocation was generated by a computer program before starting the initial enrollment, and the allocation coordinator concealed the allocation information until the last patient finished. The placebo drug was indistinguishable in terms of appearance. The trial drugs were distributed to each hospital according to the allocation schedule for each patient. All study personnel and patients were masked to treatment group allocation.
SR-0379 (0.02%, 0.1%, and 0.5%) or placebo was topically administered after cleaning with soap once per day for 28 days. After treatment, the wound was covered with a piece of gauze. […] No topical wound healing drugs were used in combination with SR-0379 or placebo for the same skin ulcer, and the topical use of FGF2 (trafermin) was prohibited starting 2 weeks before treatment through the final treatment.
Upon study entry, clinical assessments, skin ulcer evaluations, blood and urine tests, chest radiographs, and ECGs were performed 1 week before treatment. Prior to the first treatment, clinical assessments and skin ulcer evaluations were performed, and plasma SR-0379 levels were measured at 15 and 60 min after the first treatment. After treatment, clinical assessments, skin ulcer evaluation, blood and urine tests, and ECGs were performed, and plasma SR-0379 levels were measured at 15 and 60 min after the final treatment. During the follow-up period (1 week after treatment), patients received appropriate treatment, including FGF2 (trafermin). […]

[7] = test system: venous leg ulcers; conditions: cited from earlier work
Description: Recently, another anti-microbial peptide, LL-37, was similarly evaluated for venous leg ulcers.[26] The study design consisted of a 4-week randomized double-blind t ...

CC[C@H](C)[C@H](NC(=O)[C@H](CC(C)C)NC(=O)[C@H](CCCCN)NC(=O)[C@H](CC(C)C)NC(=O)[C@@H](N)CCSC)C(=O)N[C@@H](Cc1ccccc1)C(=O)N[C@@H](CC(C)C)C(=O)N[C@@H](Cc1c[nH]cn1)C(=O)N[C@@H](CCCNC(=N)N)C(=O)N[C@@H](CC(C)C)C(=O)N[C@@H](CCCCN)C(=O)N[C@@H](CCCNC(=N)N)C(=O)N[C@@H](CCSC)C(=O)N[C@@H](CCCNC(=N)N)C(=O)N[C@@H](CCCCN)C(=O)N[C@@H](CCCNC(=N)N)C(=O)N[C@@H](CC(C)C)C(=O)N[C@H](CCCCN)C(=O)N[C@@H](CCCNC(=N)N)C(=O)N[C@@H](CCCCN)C(=O)O [SR-0379] (H-MLKLIFLHRLKRMRKRL[dK]RK-OH; N-terminus and C-terminus assumed)
skin irritation index scores, assessment [1]: within permitted levels for clinical usage | vital signs and electrocardiogram (ECG) [1]: no abnormal findings | wound healing effect [2]: higher than that of fibroblast growth factor 2 (FGF2) | Adverse event: Outcome ([3]; 0.5% SR-0379, person, pneumonia): Death | Adverse event: Causality ([3]; human, in vivo): No | local adverse events such as itching, rash, or pain during treatment ([3]; human, in vivo): no local adverse events | relation of all adverse events to SR-0379 treatment ([3]; human, in vivo): unrelated | angiogenesis, granulation tissue formation, and endothelial cell and fibroblast proliferation [4]: promoted | Bacterial wound cultures, Decrease: number of patients ([5]; 0.02% group): 2 | Bacterial wound cultures, Increase: number of patients ([5]; 0.02% group): 1 | Bacterial wound cultures, No change: number of patients ([5]; 0.02% group): 0 | Bacterial wound cultures, Decrease: number of patients ([5]; 0.1% group): 2 | Bacterial wound cultures, Increase: number of patients ([5]; 0.1% group): 0 | Bacterial wound cultures, No change: number of patients ([5]; 0.1% group): 1 | Bacterial wound cultures, Decrease: number of patients ([5]; 0.5% group): 1 | Bacterial wound cultures, Increase: number of patients ([5]; 0.5% group): 0 | Bacterial wound cultures, No change: number of patients ([5]; 0.5% group): 1 | Size reduction (percent decrease) of skin ulcers, mean ([6]; 0.02% SR-0379, 2 weeks after treatment): -3.157% | Size decrease, single patient ([6]; 0.02% SR-0379, diabetic ulcer, foot (lateral malleolus), Werner Syndrome patient): 61.45% | Size decrease, single patient ([6]; 0.02% SR-0379, diabetic ulcer, low leg): 75.00% | Size decrease, single patient ([6]; 0.02% SR-0379, ischemic ulcer, finger): -2.27% | skin ulcer rate of reduction at the final evaluation (4th week or discontinuation) ([6]; 0.02% SR-0379 topical once per day for 28 days): 44.73 ± 41.26% and 44.727% | Overall improvement, Mild: number of patients ([6]; 0.02% group): 1 | Overall improvement, Moderate: number of patients ([6]; 0.02% group): 1 | Overall improvement, No change: number of patients ([6]; 0.02% group): 0 | Overall improvement, Worse: number of patients ([6]; 0.02% group): 1 | Skin ulcer size, 2 weeks after treatment (mean ± SD) ([6]; 0.02% group): 0.777 ± 0.783 | Skin ulcer size, Post-treatment (mean ± SD) ([6]; 0.02% group): 0.563 ± 0.698 | Wound closure, Yes: number of patients (%) ([6]; 0.02% group): 0 (0%) | DESIGN-R total score, Pre-mean (SD) ([6]; 0.02% group): 9.3 (4.7) | DESIGN-R total score, Post-mean (SD) ([6]; 0.02% group): 4.3 (1.5) | Overall improvement, Significant: number of patients ([6]; 0.02% group): 1 | Size reduction (percent decrease) of skin ulcers, mean ([6]; 0.1% SR-0379, 2 weeks after treatment): 38.36% | Size decrease, single patient ([6]; 0.1% SR-0379, diabetic ulcer, foot (heel), Werner Syndrome patient): 34.93% | Size decrease, single patient ([6]; 0.1% SR-0379, diabetic ulcer, foot, patient with skin abrasion): 87.50% | Size decrease, single patient ([6]; 0.1% SR-0379, ischemic ulcer, finger): 82.32% | skin ulcer rate of reduction at the final evaluation (4th week or discontinuation) ([6]; 0.1% SR-0379 topical once per day for 28 days): 68.25 ± 28.98% and 68.247% | Overall improvement, Mild: number of patients ([6]; 0.1% group): 1 | Overall improvement, Moderate: number of patients ([6]; 0.1% group): 1 | Overall improvement, No change: number of patients ([6]; 0.1% group): 0 | Overall improvement, Worse: number of patients ([6]; 0.1% group): 0 | Skin ulcer size, 2 weeks after treatment (mean ± SD) ([6]; 0.1% group): 0.320 ± 0.381 | Skin ulcer size, Post-treatment (mean ± SD) ([6]; 0.1% group): 0.473 ± 0.488 | Wound closure, Yes: number of patients (%) ([6]; 0.1% group): 0 (0%) | DESIGN-R total score, Pre-mean (SD) ([6]; 0.1% group): 9.0 (1.0) | DESIGN-R total score, Post-mean (SD) ([6]; 0.1% group): 5.3 (4.0) | Overall improvement, Significant: number of patients ([6]; 0.1% group): 1 | Size reduction (percent decrease) of skin ulcers, mean ([6]; 0.5% SR-0379, 2 weeks after treatment): 14.443% | Size decrease, single patient ([6]; 0.5% SR-0379, diabetic ulcer, foot, complete ulcer closure): 100% | Size decrease, single patient ([6]; 0.5% SR-0379, venous ulcer, low leg): 14.84% | skin ulcer rate of reduction at the final evaluation (4th week or discontinuation) ([6]; 0.5% SR-0379 topical once per day for 28 days): 71.61 ± 49.17% and 71.613% | Overall improvement, Mild: number of patients ([6]; 0.5% group): 0 | Overall improvement, Moderate: number of patients ([6]; 0.5% group): 3 | Overall improvement, No change: number of patients ([6]; 0.5% group): 0 | Overall improvement, Worse: number of patients ([6]; 0.5% group): 0 | Skin ulcer size, 2 weeks after treatment (mean ± SD) ([6]; 0.5% group): 1.910 ± 3.179 | Skin ulcer size, Post-treatment (mean ± SD) ([6]; 0.5% group): 1.760 ± 3.048 | DESIGN-R total score, Pre-mean (SD) ([6]; 0.5% group): 12.0 (7.2) | DESIGN-R total score, Post-mean (SD) ([6]; 0.5% group): 5.3 (5.1) | Overall improvement, Significant: number of patients ([6]; 0.5% group): 0

LL-37
healing rate constants ([7]; 0.5 mg/mL LL-37, 4-week treatment, p = 0.003 vs placebo): higher than those for placebo | healing rate constants ([7]; 1.6 mg/mL LL-37, 4-week treatment, p = 0.088 vs placebo): higher than those for placebo
